Data as given in US20150352108A1, “AMINO-PYRIMIDINE COMPOUNDS AS INHIBITORS OF TBK1 AND/OR IKK EPSILON” (Alzheimer's Institute of America, priority 2009, published 2015).

The compounds below were run against T1, IKKε (Homo sapiens, UniProt Q14164) (assay: In-vitro IKKε kinase assay ([γ33]ATP filter-plate)). Conditions: text bins; read-out: IC50 for inhibition of the kinase activity of IKKε.
T1 construct: His-tag; made in house; host or cells: Sf9 insect cells
T1 sequence (Q14164 1-716): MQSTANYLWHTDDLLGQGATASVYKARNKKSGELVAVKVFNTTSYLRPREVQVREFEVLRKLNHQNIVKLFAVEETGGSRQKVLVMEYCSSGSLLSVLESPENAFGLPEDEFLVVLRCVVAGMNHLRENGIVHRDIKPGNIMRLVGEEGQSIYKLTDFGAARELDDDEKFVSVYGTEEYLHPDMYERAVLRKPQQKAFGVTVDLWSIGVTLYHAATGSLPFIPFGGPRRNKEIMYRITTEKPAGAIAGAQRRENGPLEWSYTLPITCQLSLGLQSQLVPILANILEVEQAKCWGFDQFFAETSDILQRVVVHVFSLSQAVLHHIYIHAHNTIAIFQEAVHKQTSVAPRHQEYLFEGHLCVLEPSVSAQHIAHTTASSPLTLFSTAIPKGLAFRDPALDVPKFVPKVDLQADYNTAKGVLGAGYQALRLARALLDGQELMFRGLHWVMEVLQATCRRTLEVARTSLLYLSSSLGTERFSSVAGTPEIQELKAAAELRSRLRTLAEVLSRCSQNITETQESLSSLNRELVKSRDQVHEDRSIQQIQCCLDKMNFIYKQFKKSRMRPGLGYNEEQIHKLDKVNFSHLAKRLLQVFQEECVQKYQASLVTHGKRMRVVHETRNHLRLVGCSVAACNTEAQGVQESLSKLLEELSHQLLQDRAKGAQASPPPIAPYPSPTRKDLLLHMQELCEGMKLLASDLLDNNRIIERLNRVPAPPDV
Type: biochemical
Outline: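 His-tagged IKKε and TBK1 from Sf9 cells were assayed with myelin basic protein or casein and [γ33]ATP at 2×Km ATP (32 μM for IKKε, 60 μM for TBK1). Enzyme was 0.1 or 0.015 μg/ml for IKKε and 0.1 or 0.02 μg/ml for TBK1 (normal/sensitized). Reactions ran 30-45 min, were filter-captured, scintillation-counted, and normalized to DMSO after background subtraction.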

Structure (SMILES)	IC50
COc1cc(NC(=O)NCCN(C)C)cc(Nc2nccc(-c3ccc(OC)c(C#N)c3)n2)c1 [compound 360, 1-(3-{[4-(3-Cyano-4-methoxyphenyl)pyrimidin-2-yl]amino}-5-methoxyphenyl)-3-[2-(dimethylamino)ethyl]urea]	50 to 500 nM
COc1cc(NC(=O)c2ccccn2)cc(Nc2nccc(-c3ccc(OC)c(C#N)c3)n2)c1 [compound 365]	50 to 500 nM
CN(C)c1cccc(Nc2nccc(-c3cccc(C#N)c3)n2)c1 [compound 379, 3-(2-{[3-(Dimethylamino)phenyl]amino}pyrimidin-4-yl)benzonitrile]	50 to 500 nM
COc1cc(Nc2nccc(-c3ccc(OC)c(C#N)c3)n2)cc(C(=O)N2CC[C@@H](O)C2)c1 [compound 382, 5-{2-[(3-{[(3R)-3-Hydroxypyrrolidin-1-yl]carbonyl}-5-methoxyphenyl)amino]pyrimidin-4-yl}-2-methoxybenzonitrile]	50 to 500 nM
N#Cc1cccc(-c2ccnc(Nc3ccc(OCC(=O)N4CCOCC4)cc3)n2)c1 [compound 386, 3-[2-({4-[2-(Morpholin-4-yl)-2-oxoethoxy]phenyl}amino)pyrimidin-4-yl]benzonitrile]	50 to 500 nM
COc1cc(NC(=O)NC2CCN(C)CC2)cc(Nc2nccc(-c3ccc(OC)c(C#N)c3)n2)c1 [compound 388]	50 to 500 nM
COc1cc(NC(=O)NCCCNC(C)=O)cc(Nc2nccc(-c3ccc(OC)c(C#N)c3)n2)c1 [compound 391, N-(3-{[(3-{[4-(3-Cyano-4-methoxyphenyl)pyrimidin-2-yl]amino}-5-methoxyphenyl)carbamoyl]amino}propyl) acetamide]	50 to 500 nM
COc1cc(Nc2nccc(-c3ccc(OC4CCNCC4)c(C#N)c3)n2)ccc1S(=O)(=O)NCCCN(C)C [compound 398]	50 to 500 nM
CCN(CC)CCN(CC)C(=O)Cc1cccc(Nc2nccc(-c3ccc(NC(=O)C(C)C)c(C#N)c3)n2)c1 [compound 424, N-[2-cyano-4-(2-{[3-(2-{[2-(diethylamino)ethyl] (ethyl)amino}-2-oxoethyl)phenyl]amino}pyrimidin-4-yl)phenyl]-2-methylpropanamide]	50 to 500 nM
N#Cc1cc(-c2ccnc(Nc3ccc(N4CCOCC4)cc3)n2)ccc1NC(=O)Cc1ccccc1 [compound 435, N-[2-cyano-4-(2-{[4-(morpholin-4-yl)phenyl]amino}pyrimidin-4-yl)phenyl]-2-phenylacetamide]	50 to 500 nM
CC(C)C(=O)Nc1ccc(-c2ccnc(Nc3ccc(CCN4CCNCC4)cc3)n2)cc1C#N [compound 451, N-{2-cyano-4-[2-({4-[2-(piperazin-1-yl)ethyl]phenyl}amino)pyrimidin-4-yl]phenyl}-2-methylpropanamide]	50 to 500 nM
CC(C)C(=O)Nc1ccc(-c2ccnc(Nc3ccc(C(C)CN4CCOCC4)cc3)n2)cc1C#N (stereo not shown) [compound 452, N-{2-cyano-4-[2-({4-[1-(morpholin-4-yl)propan-2-yl]phenyl}amino)pyrimidin-4-yl]phenyl}-2-methylpropanamide]	50 to 500 nM

The remaining lines, values ahead:

IC50	Structure (SMILES)
50 to 500 nM	COc1ccc(-c2ccnc(Nc3cccc(NC(=O)NC4CCCC4)c3)n2)cc1C#N [compound 348, 1-(3-{[4-(3-Cyano-4-methoxyphenyl)pyrimidin-2-yl]amino}phenyl)-3-cyclopentylurea]
5 to 50 nM	COc1ccc(Nc2nccc(-c3cccc(C#N)c3)n2)cc1OC [compound 352, 3-{2-[(3,4-Dimethoxyphenyl)amino]pyrimidin-4-yl}benzonitrile]
50 to 500 nM	COc1cc(NC(=O)c2ccncc2)cc(Nc2nccc(-c3ccc(OC)c(C#N)c3)n2)c1 [compound 357]
5 to 50 nM	COc1cc(NC(=O)C2CCCC2)cc(Nc2nccc(-c3ccc(OC)c(C#N)c3)n2)c1 [compound 362, N-(3-{[4-(3-Cyano-4-methoxyphenyl)pyrimidin-2-yl]amino}-5-methoxyphenyl) cyclopentane-carboxamide]
5 to 50 nM	COc1cc(NC(=O)Nc2ccccc2)cc(Nc2nccc(-c3ccc(OC)c(C#N)c3)n2)c1 [compound 364, 1-(3-{[4-(3-Cyano-4-methoxyphenyl)pyrimidin-2-yl]amino}-5-methoxyphenyl)-3-phenylurea]
5 to 50 nM	COc1ccc(-c2ccnc(Nc3ccc(S(=O)(=O)NCCN(C)C)c(OC)c3)n2)cc1C#N [compound 384]
5 to 50 nM	COc1cc(Nc2nccc(-c3ccc(OC4CCNCC4)c(C#N)c3)n2)ccc1S(=O)(=O)NCCCO [compound 399, 4-({4-[3-cyano-4-(piperidin-4-yloxy)phenyl]pyrimidin-2-yl}amino)-N-(3-hydroxypropyl)-2-methoxybenzene-sulfonamide]
5 to 50 nM	CC(C)C(=O)Nc1ccc(-c2ccnc(Nc3ccc(CN4CCN(CCO)CC4)cc3)n2)cc1C#N [compound 426, N-(2-cyano-4-{2-[(4-{[4-(2-hydroxyethyl)piperazin-1-yl]methyl}phenyl)amino]pyrimidin-4-yl}phenyl)-2-methylpropanamide]
5 to 50 nM	CC(C)C(=O)Nc1ccc(-c2ccnc(Nc3cccc(OCCCN4CCOCC4)c3)n2)cc1C#N [compound 429, N-{2-cyano-4-[2-({3-[3-(morpholin-4-yl)propoxy]phenyl}amino)pyrimidin-4-yl]phenyl}-2-methylpropanamide]
5 to 50 nM	CC(C)C(=O)Nc1ccc(-c2ccnc(Nc3ccc(OCCCN4CCOCC4)cc3)n2)cc1C#N [compound 430, N-{2-cyano-4-[2-({4-[3-(morpholin-4-yl)propoxy]phenyl}amino)pyrimidin-4-yl]phenyl}-2-methylpropanamide]
5 to 50 nM	CC(C)C(=O)Nc1ccc(-c2ccnc(Nc3ccc(OCCN4CCOCC4)cc3)n2)cc1C#N [compound 431, N-{2-cyano-4-[2-({4-[2-(morpholin-4-yl)ethoxy]phenyl}amino)pyrimidin-4-yl]phenyl}-2-methylpropanamide]
5 to 50 nM	N#Cc1cc(-c2ccnc(Nc3ccc(N4CCOCC4)cc3)n2)ccc1NC(=O)C(F)(F)C(F)F [compound 441, N-[2-Cyano-4-(2-{[4-(morpholin-4-yl)phenyl]amino}pyrimidin-4-yl)phenyl]-2,2,3,3-tetrafluoropropanamide]
5 to 50 nM	CCNS(=O)(=O)c1ccc(Nc2nccc(-c3ccc(NC(=O)C(C)C)c(C#N)c3)n2)cc1 [compound 449, N-[2-cyano-4-(2-{[4-(ethylsulfamoyl)phenyl]amino}pyrimidin-4-yl)phenyl]-2-methylpropanamide]
5 to 50 nM	CC(C)C(=O)Nc1ccc(-c2ccnc(Nc3ccc(C(C)C(=O)N4CCOCC4)cc3)n2)cc1C#N (stereo not shown) [compound 453, N-{2-cyano-4-[2-({4-[1-(morpholin-4-yl)-1-oxopropoan-2-yl]phenyl}amino)pyrimidin-4-yl]phenyl}-2-methylpropanamide]
5 to 50 nM	CCN(CC)CCc1ccc(Nc2nccc(-c3ccc(NC(=O)C(C)C)c(C#N)c3)n2)cc1 [compound 454, N-{2-cyano-4-[2-({4-[2-(diethylamino)ethyl]phenyl}amino)pyrimidin-4-yl]phenyl}-2-methylpropanamide]
5 to 50 nM	CC(C)C(=O)Nc1ccc(-c2ccnc(Nc3ccc(CCNCCO)cc3)n2)cc1C#N [compound 455, N-(2-cyano-4-{2-[(4-{2-[(2-hydroxyethyl)amino]ethyl}phenyl)amino]pyrimidin-4-yl}phenyl)-2-methylpropanamide]
